Measurements: patent publication US10519114B2, “Peptidomimetics and methods of using the same” (The Regents of the University of Michigan, priority 2016, dated 2019)

How the values were obtained:
[1] = biological target: T1, rat μ (C6-MOR) opioid receptor (Rattus norvegicus, UniProt P33535); experiment: Radioligand binding assay, [3H]diprenorphine displacement, MOR; settings: displacement of 0.2 nM [3H]diprenorphine, C6-MOR membranes; mean ± standard error
T1 construct: expressed in transfected cells
Experimental: (§1) In Vitro Pharmacology-Cell Lines and Membrane Preparations. All tissue culture reagents were purchased from Gibco Life Sciences (Grand Island, N.Y., U.S.). C6-rat glioma cells stably transfected with a rat μ (C6-MOR) or rat δ (C6-DOR) opioid receptor20 and Chinese hamster ovary (CHO) cells stably expressing a human K (CHO-KOR) opioid receptor21 were used for all in vitro assays. Cells were grown to confluence at 37° C. in 5% CO2 in Dulbecco's modified Eagle medium containing 10% fetal bovine serum and 5% penicillin/streptomycin. Membranes were prepared by washing confluent cells three times with ice cold phosphate buffered saline (0.9% NaCl, 0.61 mM Na2HPO4, 0.38 mM KH2PO4, pH 7.4). Cells were detached from the plates by incubation in warm harvesting buffer (20 mM HEPES, 150 mM NaCl, 0.68 mM EDTA, pH 7.4) and pelleted by centrifugation at 200 g for 3 min. The cell pellet was suspended in ice-cold 50 mM Tris-HCl buffer, pH 7.4, and homogenized with a Tissue Tearor (Biospec Products, Inc., Bartlesville, Okla., U.S.) for 20 s at setting 4. The homogenate was centrifuged at 20 000 g for 20 min at 4° C., and the pellet was rehomogenized in 50 mM Tris-HCl with a Tissue Tearor for 10 s at setting 2, followed by recentrifugation. The final pellet was resuspended in 50 mM Tris-HCl and frozen in aliquots at […]. Protein concentration was determined via Bradford assay using bovine serum albumin as the standard.
(§2) Radioligand Binding Assays. Radioactive compounds were purchased from Perkin-Elmer (Waltham, Mass., U.S.). Opioid ligand binding assays were performed using competitive displacement of 0.2 nM [3H]diprenorphine (250 μCi, 1.85 TBq/mmol) by the test compound from membrane preparations containing opioid receptors. The assay mixture, containing membrane suspension (20 μg protein/tube) in 50 mM Tris-HCl buffer (pH 7.4), [3H]diprenorphine, and various concentrations of test peptide, was incubated at room temperature for 1 h to allow binding to reach equilibrium. The samples were rapidly filtered through Whatman GF/C filters using a Brandel harvester (Brandel, Gaithersburg, Md., U.S.) and washed three times with 50 mM Tris-HCl buffer. The radioactivity retained on dried filters was determined by liquid scintillation counting after saturation with EcoLume liquid scintillation cocktail in a Wallac 1450 MicroBeta (Perkin-Elmer, Waltham, Mass., U.S.). Nonspecific binding was determined using 10 μM naloxone. Inhibitory constant (Ki) values were calculated using nonlinear regression analysis to fit a logistic equation to the competition data using GraphPad Prism, version 5.01, for Windows (GraphPad Software Inc., La Jolla, Calif.). The results presented are the mean±standard error from at least three separate assays performed in duplicate.

[2] = biological target: T2, rat δ (C6-DOR) opioid receptor (Rattus norvegicus, UniProt P33533); experiment: Radioligand binding assay, [3H]diprenorphine displacement, DOR; settings: displacement of 0.2 nM [3H]diprenorphine, C6-DOR membranes; mean ± standard error
T2 construct: expressed in transfected cells
Experimental: as §1, §2

[3] = biological target: T3, human κ (CHO-KOR) opioid receptor (Homo sapiens, UniProt P41145); experiment: Radioligand binding assay, [3H]diprenorphine displacement, KOR; settings: displacement of 0.2 nM [3H]diprenorphine, CHO-KOR membranes; mean ± standard error
T3 construct: expressed in transfected cells
Experimental: as §1, §2

[4] = biological target: T1, rat μ (C6-MOR) opioid receptor; experiment: Stimulation of [35S]GTPγS binding, MOR; format: biochemical
Experimental: as §1
(§3) Stimulation of [^35S]GTPyS Binding. Agonist stimulation of [35S]guanosine 5′-O-[γ-thio]triphosphate ([^35S]GTPγS, 1250 Ci, 46.2 TBq/mmol) binding was measured as described previously Briefly, membranes (10-20 μg of protein/tube) were incubated 1 h at room temperature in GTPyS buffer (50 mM Tris-HCl, 100 mM NaCl, 5 mM MgCl2, pH 7.4) containing 0.1 nM [^35S]GTPγS, 30 μM guanosine diphosphate (GDP), and varying concentrations of test peptides. Peptide stimulation of [^35S]GTPyS was compared with 10 μM standard compounds [D-Ala^2,N-MePhe^4,Gly-ol]encephalin (DAMGO) at MOR, D-Pen^2,5-enkephalin (DPDPE) at DOR, or […] at KOR. The reaction was terminated by rapidly filtering through GF/C filters and washing 10 times with GTPyS buffer, and retained radioactivity was measured as described above. The results presented are the mean±standard error from at least three separate assays performed in duplicate; maximal stimulation was determined using nonlinear regression analysis with GraphPad Prism (GraphPad Software Inc., La Jolla, Calif.).

[5] = biological target: T2, rat δ (C6-DOR) opioid receptor; experiment: Stimulation of [35S]GTPγS binding, DOR; format: biochemical; settings: for EC50 / EC50 (nm) DOR: [35S]GTPγS binding, C6-DOR membranes, mean ± standard error; for Emax / % stimulation DOR: [35S]GTPγS maximal stimulation compared with 10 μM standard DPDPE
Experimental: as §1, §3

[6] = [35S]GTPγS binding, C6-MOR membranes, mean ± standard error
[7] = [35S]GTPγS maximal stimulation compared with 10 μM standard DAMGO

T1 sequence (P33535 whole entry): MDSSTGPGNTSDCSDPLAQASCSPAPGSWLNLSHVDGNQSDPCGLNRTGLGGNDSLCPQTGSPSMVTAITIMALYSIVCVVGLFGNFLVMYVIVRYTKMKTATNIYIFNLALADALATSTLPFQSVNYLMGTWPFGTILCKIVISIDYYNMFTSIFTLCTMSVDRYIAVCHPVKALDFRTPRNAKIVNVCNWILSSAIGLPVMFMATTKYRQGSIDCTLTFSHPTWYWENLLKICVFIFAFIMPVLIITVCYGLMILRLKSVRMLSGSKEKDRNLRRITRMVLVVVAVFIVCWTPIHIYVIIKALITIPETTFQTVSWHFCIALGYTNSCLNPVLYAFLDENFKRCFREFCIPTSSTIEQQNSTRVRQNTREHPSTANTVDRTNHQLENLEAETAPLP
T2 sequence (P33533 whole entry): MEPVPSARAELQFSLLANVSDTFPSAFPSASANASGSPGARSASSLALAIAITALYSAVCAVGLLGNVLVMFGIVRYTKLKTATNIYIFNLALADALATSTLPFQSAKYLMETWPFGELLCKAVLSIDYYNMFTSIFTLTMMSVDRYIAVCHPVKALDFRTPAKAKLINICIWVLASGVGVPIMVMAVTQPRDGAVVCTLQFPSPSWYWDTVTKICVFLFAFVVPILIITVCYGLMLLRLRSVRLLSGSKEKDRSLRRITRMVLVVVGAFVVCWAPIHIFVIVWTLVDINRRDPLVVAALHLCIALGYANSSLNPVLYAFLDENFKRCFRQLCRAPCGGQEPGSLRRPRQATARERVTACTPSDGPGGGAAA
T3 sequence (P41145 whole entry): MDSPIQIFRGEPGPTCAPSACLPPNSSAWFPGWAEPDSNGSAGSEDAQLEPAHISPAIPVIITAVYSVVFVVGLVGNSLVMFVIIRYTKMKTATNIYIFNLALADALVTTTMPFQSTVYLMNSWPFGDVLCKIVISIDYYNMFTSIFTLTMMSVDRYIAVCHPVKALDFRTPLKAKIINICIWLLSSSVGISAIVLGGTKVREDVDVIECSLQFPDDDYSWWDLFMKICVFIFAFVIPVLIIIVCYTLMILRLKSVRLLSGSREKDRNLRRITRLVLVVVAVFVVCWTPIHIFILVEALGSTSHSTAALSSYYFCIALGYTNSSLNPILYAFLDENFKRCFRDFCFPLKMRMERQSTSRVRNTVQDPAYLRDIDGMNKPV

| SMILES | Ki [1] [nM] | Ki [2] [nM] | Ki [3] [nM] | EC50 [4, 6] [nM] | Emax [4, 7] [%] | EC50 [5] [nM] | Emax [5] [%] | EC50 (nm) DOR [5] | % stimulation DOR [5] | EC50 (nm) MOR [4, 6] | % stimulation MOR [4, 7] |
| --- | --- | --- | --- | --- | --- | --- | --- | --- | --- | --- | --- |
| Cc1cc(O)cc(C)c1C[C@H](N)C(=O)N[C@@H]1CCNc2ccc(CC3Cc4ccc(O)cc4C3)cc21 (stereo partly drawn) [Compound 1038] | 0.73 | 19.9 ± 4.12 | 38.5 | 11.9 ± 4.96 | 16.2 ± 3.43 | 261 | 10.5 |  |  |  |  |
| Cc1cc(O)cc(C)c1C[C@H](N)C(=O)N[C@@H]1CCNc2cc(Cc3ccccc3)ccc21 [Compound 1023] | 0.78 ± 0.27 | 25.8 ± 1.61 | 91.6 | 25.4 ± 22.2 | 18.1 ± 4.92 |  |  | dns | dns |  |  |
| COC(=O)N1CC[C@@H](NC(=O)[C@@H](N)Cc2c(C)cc(O)cc2C)c2cc(CC3Cc4ccccc4C3)ccc21 [Compound 1044] | 0.09 ± 0.02 | 0.26 ± 0.05 | 10.4 | 0.4 | 82.5 |  |  | dns | dns |  |  |
| Cc1cc(O)cc(C)c1C[C@H](N)C(=O)N[C@@H]1CCNc2ccc(CC3Cc4cccc(O)c4C3)cc21 (stereo partly drawn) [Compound 1036, (2S)-2-amino-N-((4R)-6-((4-hydroxy-2,3-dihydro-1H-inden-2-yl)methyl)-1,2,3,4-tetrahydroquinolin-4-yl)-3-(4-hydroxy-2,6-dimethylphenyl)propanamide] | 0.18 ± 0.03 | 6.01 ± 1.31 | 20.6 ± 16.3 | 4.93 ± 1.15 | 69.1 ± 5.74 |  |  | dns | dns |  |  |
| Cc1cc(O)cc(C)c1C[C@H](N)C(=O)N[C@H]1CCNc2cc(Cc3ccccc3)ccc21 [Compound 1024] | 21.1 ± 11.9 | 295 ± 108 | 1030 |  |  |  |  | dns | dns | dns | dns |
| Cc1cc(O)cc(C)c1C[C@H](N)C(=O)N[C@@H]1CCNc2ccc(Oc3ccc(Cl)cc3)cc21 [Compound 1025] | 0.1 ± 0.03 | 12.1 ± 3.52 | 24.8 | 9.7 ± 1.32 | 52.9 ± 4.46 | 0.3 | 1.18 ± 1.18 |  |  |  |  |
| CC(=O)N1CC[C@@H](NC(=O)[C@@H](N)Cc2c(C)cc(O)cc2C)c2cc(Cc3ccccc3)cc(Cc3ccccc3)c21 [Compound 1042] | 0.35 | 0.35 | 12.1 | 14.7 | 75.1 | 14.2 | 30.1 |  |  |  |  |
| Cc1cc(O)cc(C)c1C[C@H](N)C(=O)N[C@H]1CCNc2ccc(Oc3ccccc3)cc21 [Compound 1018] | 41.3 ± 6.34 | 277 ± 47.4 | 494 | 1300 | 16.6 ± 16.6 | 2000 | 19.6 |  |  |  |  |
| Cc1cc(O)cc(C)c1C[C@H](N)C(=O)N[C@@H]1CCNc2ccc(CC3Cc4ccccc4C3C)cc21 (stereo partly drawn) [Compound 1043] | 0.43 ± 0.18 | 12 ± 1.17 | 35.7 ± 23.6 | 3.21 ± 1.25 | 92.4 ± 8.06 |  |  | dns | dns |  |  |
| Cc1cc(O)cc(C)c1C[C@H](N)C(=O)N[C@@H]1CCNc2c(Cc3ccccc3)cccc21 [Compound 1039] | 57.7 | 246 | 977 | 988 | 17.9 |  |  | dns | dns |  |  |
| Cc1cc(O)cc(C)c1C[C@H](N)C(=O)N[C@@H]1CCNc2ccc(C(c3ccccc3)c3ccccc3)cc21 [Compound 1022] | 0.2 ± 0.02 | 2.29 ± 0.36 | 6.91 ± 0.21 | 12.5 ± 8.76 | 24.5 ± 0.29 |  | 0 |  |  |  |  |
| CC(=O)N1CC[C@H](NC(=O)[C@@H](N)Cc2c(C)cc(O)cc2C)c2cc(Oc3ccccc3)ccc21 [Compound 1020] | 6.25 ± 1.39 | 92.9 ± 15.1 | 787 | 598 ± 282 | 60.4 ± 2.04 | 204 | 16 |  |  |  |  |
| Cc1cc(O)cc(C)c1C[C@H](N)C(=O)N[C@@H]1CCNc2ccc(Cn3n[n+]([O-])c4ccc(Cl)cc43)cc21 [Compound 1047] | 0.35 ± 0.05 | 3.54 ± 0.83 | 22.5 ± 8.83 | 3.45 ± 0.67 | 81.6 ± 1.48 |  |  | dns | dns |  |  |
| COc1cc2c(cc1Cc1ccccc1)[C@H](NC(=O)[C@@H](N)Cc1c(C)cc(O)cc1C)CCN2 [Compound 1045] | 0.26 ± 0.09 | 2.84 ± 0.78 | 8.51 | 8.03 ± 3.15 | 98.4 ± 2.54 | 135 | 32.5 |  |  |  |  |
| Cc1cc(O)cc(C)c1C[C@H](N)C(=O)N[C@@H]1CCNc2cc(O)c(Cc3ccccc3)cc21 [Compound 1046] | 0.33 ± 0.14 | 2.74 ± 0.05 | 15.1 | 9.86 ± 3.79 | 94.7 ± 4.19 | 237 | 20.3 |  |  |  |  |
| CCCC(=O)N1CC[C@@H](NC(=O)[C@@H](N)Cc2c(C)cc(O)cc2C)c2cc(CC3Cc4ccccc4C3)ccc21 [Compound 1034] | 0.13 ± 0.02 | 0.38 ± 0.07 | 25.5 ± 0.85 | 4.08 ± 1.58 | 63.2 ± 12.6 |  |  | dns | dns |  |  |
